Reference: patent US6653298B2, “Composition” (Sterix Limited, priority 2000, dated 2003)

How the values were obtained:
[1] = tested on: Meth A sarcoma, B16 melanoma or MDA-MB-435 estrogen receptor negative (ER−) breast cancer cells; conditions: subcutaneous injection of Meth A sarcoma, B16 melanoma or MDA-MB-435 cells; cited from earlier work
endothelial cell = conditions: cited from earlier work
angiogenesis = conditions: cited from earlier work
microtubule = conditions: at high concentrations; cited from earlier work
tubulin = conditions: at high concentrations; cited from earlier work
E1-STS [2] = biological target: T1, E1-STS (Homo sapiens, UniProt P08842); conditions: cited from earlier work
T1 sequence (P08842 22-583): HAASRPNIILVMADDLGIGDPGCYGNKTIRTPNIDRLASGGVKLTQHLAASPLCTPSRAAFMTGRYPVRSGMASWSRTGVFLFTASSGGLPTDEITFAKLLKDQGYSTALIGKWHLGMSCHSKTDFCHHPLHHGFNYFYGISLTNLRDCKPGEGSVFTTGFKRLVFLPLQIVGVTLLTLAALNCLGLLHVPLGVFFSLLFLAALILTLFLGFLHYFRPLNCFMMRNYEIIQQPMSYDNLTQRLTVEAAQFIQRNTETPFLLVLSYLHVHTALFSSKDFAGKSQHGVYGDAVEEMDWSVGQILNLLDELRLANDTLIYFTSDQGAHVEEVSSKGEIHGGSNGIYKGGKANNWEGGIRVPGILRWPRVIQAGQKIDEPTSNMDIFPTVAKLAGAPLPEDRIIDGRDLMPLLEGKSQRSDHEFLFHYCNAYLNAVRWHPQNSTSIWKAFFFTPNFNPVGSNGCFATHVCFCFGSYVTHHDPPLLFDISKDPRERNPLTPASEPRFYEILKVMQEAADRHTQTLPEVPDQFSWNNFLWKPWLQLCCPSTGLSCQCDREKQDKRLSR

uterine growth = conditions: cited from earlier work
[3] = referring to antigonadotropic properties; cited from earlier work
[4] = single oral dose 50 μg, FIG. 4; cited from earlier work
[5] = biological target: T2, dehydroepiandrosterone sulphatase (DHA-STS) (Homo sapiens, UniProt P08842); conditions: cited from earlier work
T2 sequence (P08842 22-583): T1 sequence (P08842 22-583)

rat liver DHA-STS = biological target: T3, rat liver DHA-STS (Rattus norvegicus, UniProt P15589); conditions: in vivo, administered either orally or subcutaneously; cited from earlier work
T3 construct: samples of liver tissue were obtained and oestrone sulphatase activity assayed; from tissue; host or cells: rat liver (after in vivo dosing)
T3 sequence (P15589 20-577): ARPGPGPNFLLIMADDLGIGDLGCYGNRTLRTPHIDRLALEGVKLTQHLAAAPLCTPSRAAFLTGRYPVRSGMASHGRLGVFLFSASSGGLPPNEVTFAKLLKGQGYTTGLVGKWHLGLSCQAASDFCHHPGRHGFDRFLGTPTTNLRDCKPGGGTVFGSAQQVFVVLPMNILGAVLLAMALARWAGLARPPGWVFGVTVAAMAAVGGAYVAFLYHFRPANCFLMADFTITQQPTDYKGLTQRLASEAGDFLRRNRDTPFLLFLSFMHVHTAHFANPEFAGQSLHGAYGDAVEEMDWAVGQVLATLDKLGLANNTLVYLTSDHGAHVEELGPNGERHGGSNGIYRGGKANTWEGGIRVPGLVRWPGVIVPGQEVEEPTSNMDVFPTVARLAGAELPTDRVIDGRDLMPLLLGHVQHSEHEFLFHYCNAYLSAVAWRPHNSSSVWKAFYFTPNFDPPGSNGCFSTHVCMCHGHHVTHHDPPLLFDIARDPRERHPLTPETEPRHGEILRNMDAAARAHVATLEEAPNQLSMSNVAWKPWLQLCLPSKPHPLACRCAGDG

[6] = rats; cited from earlier work
E1-STS [7] = biological target: T1, E1-STS; set-up: endogenous in cells; host or cells: MCF-7; dose or concentration left out as unconfirmed; conditions: intact MCF-7 cells; cited from earlier work
[8] = Distribution of compound in blood (erythrocyte binding)
estrogen receptor [9] = test: In vitro estrogen receptor binding / displacement of radiolabelled oestradiol
Procedure: (§1) Oestradiol Sulfamate (J995) was investigated with respect to its hormonal properties in vitro and in vivo. In vitro studies included the evaluation of its specific binding to oestrogen receptors using cytosolic preparations of uterine tissue of rats and mice and MCF-7 tumor cells. In vivo studies were performed on several animal species including intact and ovariectomised rats and cynomolgus monkeys. These species served for detailed pharmacodynamic and pharmacokinetic studies at parenteral and oral administration of the compound.

estrogen receptor [10] = biological target: T4, estrogen receptor (Mus musculus, UniProt P19785); test: Specific binding of radiolabelled J995 to estrogen receptor of mice
T4 construct: using cytosolic preparations of uterine tissue of rats and mice and MCF-7 tumor cells; from tissue; host or cells: mouse uterine cytosol
T4 sequence (P19785 1-599): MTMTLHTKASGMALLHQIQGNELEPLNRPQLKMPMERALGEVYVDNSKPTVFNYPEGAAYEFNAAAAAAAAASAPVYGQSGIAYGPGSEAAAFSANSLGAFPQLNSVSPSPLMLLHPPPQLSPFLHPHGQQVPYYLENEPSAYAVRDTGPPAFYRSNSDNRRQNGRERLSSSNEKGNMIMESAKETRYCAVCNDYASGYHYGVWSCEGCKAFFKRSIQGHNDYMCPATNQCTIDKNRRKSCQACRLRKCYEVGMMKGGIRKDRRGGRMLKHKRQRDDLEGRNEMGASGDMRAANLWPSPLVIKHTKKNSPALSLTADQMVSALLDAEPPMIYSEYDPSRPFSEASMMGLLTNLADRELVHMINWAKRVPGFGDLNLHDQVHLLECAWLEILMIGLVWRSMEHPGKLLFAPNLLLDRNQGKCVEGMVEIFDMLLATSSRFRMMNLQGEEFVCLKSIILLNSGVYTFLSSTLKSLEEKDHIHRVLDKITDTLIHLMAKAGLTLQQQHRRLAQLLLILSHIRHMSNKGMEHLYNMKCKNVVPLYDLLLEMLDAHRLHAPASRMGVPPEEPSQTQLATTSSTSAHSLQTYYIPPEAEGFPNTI
Procedure: as §1

estrogen receptor [11] = biological target: T5, estrogen receptor (Rattus norvegicus, UniProt P06211); test: Specific binding of radiolabelled J995 to estrogen receptor of rats
T5 construct: using cytosolic preparations of uterine tissue of rats and mice and MCF-7 tumor cells; from tissue; host or cells: rat uterine cytosol
T5 sequence (P06211 1-600): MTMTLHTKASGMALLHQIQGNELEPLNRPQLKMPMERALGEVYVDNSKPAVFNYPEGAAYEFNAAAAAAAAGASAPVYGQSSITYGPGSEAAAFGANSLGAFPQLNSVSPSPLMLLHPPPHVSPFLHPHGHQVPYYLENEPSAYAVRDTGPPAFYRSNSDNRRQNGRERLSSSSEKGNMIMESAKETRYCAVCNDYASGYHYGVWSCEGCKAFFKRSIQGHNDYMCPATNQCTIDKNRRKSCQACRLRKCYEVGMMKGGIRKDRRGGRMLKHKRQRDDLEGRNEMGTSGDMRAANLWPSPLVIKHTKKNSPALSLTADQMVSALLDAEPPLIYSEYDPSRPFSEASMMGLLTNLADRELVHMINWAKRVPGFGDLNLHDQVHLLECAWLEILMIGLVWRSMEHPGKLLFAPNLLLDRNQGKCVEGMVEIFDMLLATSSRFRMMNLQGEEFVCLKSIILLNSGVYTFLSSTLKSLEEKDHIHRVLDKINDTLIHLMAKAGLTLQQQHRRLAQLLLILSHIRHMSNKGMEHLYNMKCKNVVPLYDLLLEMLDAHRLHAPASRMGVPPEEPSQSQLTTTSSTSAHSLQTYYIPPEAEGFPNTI
Procedure: as §1

estrogen receptor [12] = biological target: T6, estrogen receptor (Homo sapiens, UniProt P03372); test: Specific binding of radiolabelled J995 to human estrogen receptor
T6 construct: using cytosolic preparations of uterine tissue of rats and mice and MCF-7 tumor cells; endogenous in cells; host or cells: MCF-7 cytosol
T6 sequence (P03372 1-595): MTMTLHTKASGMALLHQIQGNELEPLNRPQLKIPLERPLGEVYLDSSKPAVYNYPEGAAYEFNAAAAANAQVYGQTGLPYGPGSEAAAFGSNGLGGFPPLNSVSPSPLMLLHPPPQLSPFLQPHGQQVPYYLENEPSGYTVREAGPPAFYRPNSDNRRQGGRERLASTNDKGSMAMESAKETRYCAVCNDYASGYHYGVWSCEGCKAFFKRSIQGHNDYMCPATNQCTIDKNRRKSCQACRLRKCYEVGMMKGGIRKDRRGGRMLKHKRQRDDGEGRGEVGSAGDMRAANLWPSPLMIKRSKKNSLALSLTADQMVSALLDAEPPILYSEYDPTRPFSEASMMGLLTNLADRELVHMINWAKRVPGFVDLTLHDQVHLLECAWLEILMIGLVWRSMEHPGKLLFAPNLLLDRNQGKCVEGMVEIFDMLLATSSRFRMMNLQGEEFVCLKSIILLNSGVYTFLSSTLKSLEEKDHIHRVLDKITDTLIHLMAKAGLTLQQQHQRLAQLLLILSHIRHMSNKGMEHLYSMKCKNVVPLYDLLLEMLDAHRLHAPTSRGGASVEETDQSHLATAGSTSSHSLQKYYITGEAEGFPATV
Procedure: as §1

[13] = Clinical pharmacokinetics after oral administration in postmenopausal women; type: in vivo, human
Procedure: Studies in the human were performed with oral administration of the compound in postmenopausal women. Several doses at single and multiple administration were evaluated. […] studies were performed with solutions in oily vehicles for parenteral administration. Oral treatment was performed with suspensions of cristalline J995 in aquaeous vehicle. Clinical studies were performed with amorphous drug substance galenically formulated with a mixture of conventional ingredients as capsules or tablets.

[14] = single oral dose of 0.5 mg, FIG. 11
[15] = single oral dose of 0.5 mg, over 5 days, FIG. 11

For `COc1cc2c(cc1O)CC[C@@H]1[C@@H]2CC[C@]2(C)[C@@H](O)CC[C@@H]12` [2-MeOE2, 2-methoxyoestradiol], the “growth of tumours in vivo” value [1] is listed as “inhibits the growth of tumours”, the “endothelial cell proliferation and migration” value (endothelial cell) is listed as “inhibits endothelial cell proliferation and migration” and the in vitro angiogenesis (angiogenesis) is listed as “inhibits”. The microtubule polymerisation (microtubule) was “can inhibit microtubule polymerisation” and the “inhibition of colchicine binding to tubulin” value (tubulin) was “weak inhibitor of colchicine binding to tubulin”.

For `COc1cc2c(cc1OS(N)(=O)=O)CC[C@@H]1[C@@H]2CC[C@]2(C)C(=O)CC[C@@H]12` [2-methoxyoestrone-3-O-sulphamate, reference compound], the “potency as steroid sulphatase inhibitor relative to EMATE” value (E1-STS [2]) is listed as “equipotent with EMATE” and the oestrogenicity (uterine growth; rat, in vivo) is listed as “devoid of oestrogenicity”.

For `C#C[C@]1(O)CC[C@H]2[C@@H]3CCc4cc(O)ccc4[C@H]3CC[C@@]21C` [EE, ethinyl estradiol], the “oestrogenicity in the liver relative to orally applied natural estrogens” value [3] is listed as 4 to 18 times and the “definition of blood levels (individual variation)” value [4] is listed as “does not lead to well defined blood levels”.

For `CC12CCC3c4ccc(OS(N)(=O)=O)cc4CCC3C1CCC2=O` (stereo not drawn) [EMATE, oestrone-3-O-sulphamate], the “manner of inhibition of the E1-STS enzyme” value (E1-STS [2]) is listed as “time- and concentration-dependent manner”, the “inhibition of DHA-STS” value [5] is listed as “inhibits dehydroepiandrosterone sulphatase” and the “inhibition of rat liver DHA-STS activity” value (rat liver DHA-STS) is listed as 99%. The effect on memory [6] was “memory enhancing effect”, the “oral uterotrophic activity relative to estradiol” value (uterine growth; rats, oral) was 100 times and the “inhibition of E1-STS activity” value (E1-STS [7]) was “more than 99%”.

For `C[C@]12CC[C@@H]3c4ccc(OS(N)(=O)=O)cc4CC[C@H]3[C@@H]1CC[C@@H]2O` [J995, oestradiol-3-sulphamate], the “amount circulating in the erythrocyte compartment” value [8] was 98-99%, the “displacement of specifically bound radioactively labelled Oestradiol” value (estrogen receptor [9]; huge excess of J995) was “unable to displace specifically bound radioactively labelled Oestradiol” and the “affinity to the estrogen receptor” value (estrogen receptor [9]; in vitro) was “no affinity to the estrogen receptor”. The “specific binding of radioactively labelled compound to estrogen receptor” value (from here on “specific binding”) (estrogen receptor [10]) was “no specific binding”, the “specific binding” value (estrogen receptor [11]) was “no specific binding” and the “specific binding” value (estrogen receptor [12]) was “no specific binding”. For the same molecule, the “factor by which metabolite oestrone sulphate stays lower than under Oestradiol Valerate treatment” value ([13]; FIG. 5: single oral 2 mg J995 vs multiple doses 2 mg E2V) was at least 10, the “constancy of blood levels of oestrogens” value ([13]; FIGS. 5-10) was “very constant, long lasting blood levels” and the “oestradiol levels compared with Oestradiol Valerate at the same dose” value ([13]; FIGS. 6, 7) was “higher and much longer lasting oestradiol levels”. The “oestrone sulphate levels in wash out phase” value ([13]; after 14 days of 100 μg per day, wash out phase over 144 hours, FIG. 9) was “almost constant oestrone sulphate levels”, the “orally administered compound reaching the erythrocyte pool” value ([13]; oral) was about 100% and the “prodrug appearing as oestrone and oestradiol in the circulation” value ([13]; oral, FIG. 11) was “more than 50%”. For the same molecule, the “total ES amount in blood” value [13, 14] was “≈ 500 μg/5 L blood”, the “total ES concentration per blood volume” value [13, 14] was about 100 μg/L blood and the “total ES erythrocyte conc.” value [13, 14] was “Ca. 200 ng/mL erythrocytes”. For the same molecule, the E1S plasma level [13, 15] was 700 pg/mL, the E1 plasma level [13, 15] was 40 pg/mL and the “Clearance of E1S calculated (amount)” value ([13]; single oral dose of 0.5 mg, 110 l×700 ng/l/day) was 385 μg/5 days. For the same molecule, the “Clearance of E1 calculated (amount)” value ([13]; single oral dose of 0.5 mg, 1870 l×40 ng/l/day) was 374 μg/5 days.

In the case of oestrone-3-N-sulphamate, the “manner of inhibition of the E1-STS enzyme” value (E1-STS [2]) is listed as “weaker non-time-dependent inactivators”.

In the case of oestrone-3-S-sulphamate, the “manner of inhibition of the E1-STS enzyme” value (E1-STS [2]) is listed as “weaker non-time-dependent inactivators”.
